Assay results reported in ChEMBL document CHEMBL1955804, “Peroxisome proliferator-activated receptors (PPARs) have multiple binding points that accommodate ligands in various conformations: phenylpropanoic acid-type PPAR ligands bind to PPAR in different conformations, depending on the subtype” (J Med Chem, 2012).

What was measured:
Format in all cases: functional
[1] = biological target: T1, Peroxisome proliferator-activated receptor gamma (Homo sapiens, UniProt P37231); assay: Agonist activity at N-terminal His-tagged human PPARgamma expressed in Escherichia coli BL21 assessed as transactivation activity
T1 sequence (P37231 whole entry): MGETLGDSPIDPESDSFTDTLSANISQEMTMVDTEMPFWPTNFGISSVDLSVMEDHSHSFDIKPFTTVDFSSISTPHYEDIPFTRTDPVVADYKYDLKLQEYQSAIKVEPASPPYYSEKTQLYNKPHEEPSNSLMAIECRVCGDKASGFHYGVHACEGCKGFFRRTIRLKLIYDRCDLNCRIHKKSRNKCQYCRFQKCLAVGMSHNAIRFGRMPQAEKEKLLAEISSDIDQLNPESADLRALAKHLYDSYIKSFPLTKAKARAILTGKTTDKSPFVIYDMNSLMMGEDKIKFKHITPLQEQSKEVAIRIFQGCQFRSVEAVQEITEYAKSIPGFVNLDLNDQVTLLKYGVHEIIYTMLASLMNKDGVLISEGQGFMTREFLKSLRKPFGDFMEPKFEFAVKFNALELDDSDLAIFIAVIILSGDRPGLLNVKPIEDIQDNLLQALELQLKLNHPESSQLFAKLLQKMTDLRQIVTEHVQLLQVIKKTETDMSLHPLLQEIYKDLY

[2] = biological target: T2, Peroxisome proliferator-activated receptor delta (Homo sapiens, UniProt Q03181); assay: Agonist activity at human PPARdelta assessed as transactivation activity
T2 sequence (Q03181 whole entry): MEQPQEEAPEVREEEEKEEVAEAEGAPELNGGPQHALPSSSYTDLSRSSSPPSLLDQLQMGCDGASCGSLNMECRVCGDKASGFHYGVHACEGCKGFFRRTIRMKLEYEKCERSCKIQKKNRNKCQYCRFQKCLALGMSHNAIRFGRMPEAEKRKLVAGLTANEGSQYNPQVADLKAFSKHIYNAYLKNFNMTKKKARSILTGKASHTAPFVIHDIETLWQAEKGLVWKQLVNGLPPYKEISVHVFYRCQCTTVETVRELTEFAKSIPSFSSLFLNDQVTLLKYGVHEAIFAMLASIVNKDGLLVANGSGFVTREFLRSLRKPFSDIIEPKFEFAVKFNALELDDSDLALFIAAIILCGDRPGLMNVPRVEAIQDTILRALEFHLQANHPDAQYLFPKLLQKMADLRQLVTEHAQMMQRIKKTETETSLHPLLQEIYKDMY

[3] = biological target: T3, Peroxisome proliferator-activated receptor alpha (Homo sapiens, UniProt Q07869); assay: Agonist activity at human PPARalpha assessed as transactivation activity
T3 sequence (Q07869 whole entry): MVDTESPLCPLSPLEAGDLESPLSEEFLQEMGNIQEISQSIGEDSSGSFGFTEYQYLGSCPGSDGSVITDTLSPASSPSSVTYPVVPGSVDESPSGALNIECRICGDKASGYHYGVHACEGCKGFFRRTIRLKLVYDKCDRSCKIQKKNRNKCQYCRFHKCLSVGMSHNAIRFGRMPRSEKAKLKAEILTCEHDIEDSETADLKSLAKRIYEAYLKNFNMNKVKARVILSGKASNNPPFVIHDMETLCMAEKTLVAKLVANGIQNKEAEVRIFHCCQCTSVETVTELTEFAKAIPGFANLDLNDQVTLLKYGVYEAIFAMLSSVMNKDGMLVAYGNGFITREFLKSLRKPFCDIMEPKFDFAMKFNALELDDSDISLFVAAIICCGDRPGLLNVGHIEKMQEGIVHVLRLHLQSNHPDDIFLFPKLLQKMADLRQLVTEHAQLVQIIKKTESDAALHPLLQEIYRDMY

CC[C@@H](Cc1ccc(OC)c(CNC(=O)c2ccc3ccc4cccc5ccc2c3c45)c1)C(=O)O
EC50 [1]: Not Active
EC50 [2]: 0.043 µM
EC50 [3]: 0.012 µM
